Legend:
[1] = system: M. tuberculosis H37Rv; details: for EC50: M. tuberculosis growth, 1 week incubation, mean ± SD (n = 3) for JCP276, BMB034, BMB038, others single dose-response experiment (n = 1)
[2] = system: BMB034-labeled proteins (serine hydrolases) of M. tuberculosis H37Rv; experiment: Competitive ABPP in live cells with BMB034 probe, gel-based; details: pre-treatment of cultures 1 h; 1 μM BMB034 labeling; JCP276 at 1 or 10 μM

Row | Compound | inhibition of M. tuberculosis growth ([1]; negative control compound) | competition with BMB034 labeling [2] | EC50 [1] [µM]
1 | O=c1oc(Cl)c(Cl)c2ccccc12 [DCI, 3,4-dichloroisocoumarin] | does not inhibit M. tuberculosis growth | did not compete | –
2 | C#CCCOc1oc(=O)c2cc(NC(=O)Nc3ccccc3)ccc2c1Cl [BMB034, 1-(3-(but-3-yn-1-yloxy)-4-chloro-1-oxo-1H-isochromen-7-yl)-3-phenylurea] | – | – | 8.7 ± 1.1
3 | C#Cc1ccc(NC(=O)Nc2ccc3c(Cl)c(OCCCBr)oc(=O)c3c2)cc1 [BMB038, 1-(3-(3-bromopropoxy)-4-chloro-1-oxo-1H-isochromen-7-yl)-3-(4-ethynylphenyl)urea] | – | – | 36 ± 11
